± gives the standard deviation of the averaged measurements.
Test system: SW684
Experiment: relative viability vs DMSO control (72 h) (fraction); higher = more viable cells
How it was run: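 Relative viability is percent growth read by ATPLite and averaged over up to triplicate wells. Sarcoma cells were seeded in 384-well plates to reach 80–90% confluence and given 2.5 µl of serially diluted compound after 24 h, from source plates of 10 mM to 0.0002 mM. Incubation lasted 72 h at 37 °C, 5% CO2, with 0.1% DMSO vehicle and a 5 µM positive control, and the data were rescaled so 1 equals full and 0 equals none.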

SMILES | relative viability (2 pM) | relative viability (5 pM) | relative viability (15 pM) | relative viability (50 pM) | relative viability (0.00014 µM) | relative viability (0.00041 µM) | relative viability (0.0012 µM) | relative viability (0.0037 µM) | relative viability (0.011 µM) | relative viability (200 fM) | relative viability (600 fM) | relative viability (0.00017 µM) | relative viability (0.00051 µM) | relative viability (0.00152 µM) | relative viability (0.00457 µM) | relative viability (0.01372 µM) | relative viability (0.04115 µM) | relative viability (0.1235 µM) | relative viability (0.3704 µM) | relative viability (1.111 µM) | relative viability (3.333 µM) | relative viability (10 µM)
COc1cc2c(cc1O)CCN[C@]21CS[C@@H]2c3c(OC(C)=O)c(C)c4c(c3[C@H](COC1=O)N1[C@@H]2[C@H]2c3c(cc(C)c(OC)c3O)C[C@@H]([C@@H]1O)N2C)OCO4 [Trabectedin] | 1.22 ± 0.037 | 1.2 ± 0.027 | 1.22 ± 0.047 | 1.18 ± 0.06 | 1.2 ± 0.045 | 1.1605 ± 0.00091 | 0.64 ± 0.054 | 0.811 ± 0.043 | 0.84 ± 0.038 | 1.17 ± 0.051 | 1.2 ± 0.071 |  |  |  |  |  |  |  |  |  |  | 
Nc1cc(C(F)(F)F)c(-c2cc(N3CCOCC3)nc(N3CCOCC3)n2)cn1 [Buparlisib] |  |  |  |  |  |  |  |  |  |  |  | 1.12 ± 0.044 | 1.14 ± 0.075 | 1.11 ± 0.047 | 1.11 ± 0.04 | 1.08 ± 0.049 | 1.09 ± 0.077 | 1.03 ± 0.016 | 0.9 ± 0.055 | 0.599 ± 0.041 | 0.38 ± 0.022 | 0.282 ± 0.0065
CC(C)NC(=O)C1CCC(n2c(NC(=O)c3ccc(F)cc3)nc3ccc(CN4CCC(C(C)(C)O)CC4)cc32)CC1 (centres undefined) [Belizatinib] |  |  |  |  |  |  |  |  |  |  |  | 1.169 ± 0.011 | 1.17 ± 0.071 | 1.19 ± 0.024 | 1.21 ± 0.098 | 1.21 ± 0.11 | 1.17 ± 0.056 | 1.16 ± 0.012 | 1.18 ± 0.03 | 1.09 ± 0.048 | 0.798 ± 0.034 | 0.381 ± 0.056
N#CC[C@H](C1CCCC1)n1cc(-c2ncnc3[nH]ccc23)cn1 [Ruxolitinib] |  |  |  |  |  |  |  |  |  |  |  | 0.985 ± 0.022 | 1.062 ± 0.005 | 1.03 ± 0.017 | 1.04 ± 0.072 | 0.991 ± 0.028 | 0.976 ± 0.035 | 0.978 ± 0.023 | 0.9518 ± 0.0033 | 0.912 ± 0.032 | 0.915 ± 0.036 | 0.777 ± 0.012
